From US11345700B2, “Methods of preparing inhibitors of influenza viruses replication” (priority 2013, dated 2022)
Like-named read-outs stand apart in the source and are kept apart here.

Experiments:
[1] = system: Influenza A/Vietnam/1203/2004 (H5N1) virus; assay type: in vivo, BALB/c mice; conditions: 10 mg/kg p.o. twice a day for 10 days; Treatment (+48 h)
influenza A/PR/8/34 = assay: In vivo combination of Compound (1) with zanamivir, influenza A challenge in mice
Description: Efficiency quotient, a composite measure of survival, bodyweight loss and lung function (% survival/(% body weight loss at Day 8)*(Penh at Day 6)) is summarized in Table 19B.

[2] = system: influenza A/Wisconsin/67/2005 (H3N2) challenge strain virus; assay: Human influenza challenge: nasal influenza shedding by qRT-PCR; assay type: in vivo, healthy volunteers (humans)
Description: (§1) Subjects underwent thrice daily nasal swabs, and kept thrice daily score cards for clinical symptoms from Days 1-7, and were discharged from the facility on Day 8, with safety follow-up at approximately Day 28. Nasal swabs were assayed for influenza virus in cell culture (primary analysis) and by qRT-PCR (secondary analysis).

[3] = system: influenza A/Wisconsin/67/2005 (H3N2) challenge strain virus; assay: Human influenza challenge: clinical and influenza-like symptom scores; assay type: in vivo, healthy volunteers (humans)
Description: as §1
Subjects recorded clinical symptoms three times a day in diaries. An AUC of clinical and influenza-like symptom scores from Day 1 through Day 7 was calculated.

[4] = system: influenza A/Wisconsin/67/2005 (H3N2) challenge strain virus; assay: Human live attenuated influenza challenge: nasal viral shedding by TCID50 cell culture assay; assay type: in vivo, healthy volunteers (humans)
Description: as §1
Additional FA group analyses were performed (data not shown).

influenza A strains = assay: microbe, parasite or virus in culture; assay type: cell-based
[5] = system: Influenza A/California/04/2009 (pndH1N1) virus; assay type: in vivo, BALB/c mice
[6] = Zanamivir 0.3 mg/kg IN x 1 (24 h prior) + Compound (1) 0.3 mg/kg BID (from 2 h prior)
[7] = Zanamivir 0.3 mg/kg IN x 1 (24 h prior) + Compound (1) 1 mg/kg BID (from 2 h prior)
[8] = Zanamivir 1 mg/kg IN x 1 (24 h prior) + Compound (1) 0.1 mg/kg BID (from 2 h prior)
[9] = Zanamivir 1 mg/kg IN x 1 (24 h prior) + Compound (1) 0.3 mg/kg BID (from 2 h prior)
[10] = Zanamivir 1 mg/kg IN x 1 (24 h prior) + Compound (1) 1 mg/kg BID (from 2 h prior)
[11] = Zanamivir 3 mg/kg IN x 1 (24 h prior) + Compound (1) 0.1 mg/kg BID (from 2 h prior)
[12] = Zanamivir 3 mg/kg IN x 1 (24 h prior) + Compound (1) 0.3 mg/kg BID (from 2 h prior)
[13] = Zanamivir 3 mg/kg IN x 1 (24 h prior) + Compound (1) 1 mg/kg BID (from 2 h prior)
[14] = Pooled Compound (1) dose groups (N = 52)
[15] = 1 mg/kg p.o. twice a day for 10 days starting 2 hours prior to virus exposure
[16] = 3 mg/kg p.o. twice a day for 10 days starting 2 hours prior to virus exposure
[17] = 10 mg/kg p.o. twice a day for 10 days starting 2 hours prior to virus exposure

SMILES: O=C(O)[C@H]1[C@H]2CC[C@H](CC2)[C@@H]1Nc1nc(-c2c[nH]c3ncc(F)cc23)ncc1F [Compound (1)]
- MDD ± SD (mean day of death of mice that died on or before day 21) [1]: >21
- Mean Lung Parameters (Day 6): Virus Titer [1]: 3.75 ± 0.94 Log10 CCID50/g
- Survivors/Total [1]: 10/10
- Survival Rate (influenza A/PR/8/34; Compound (1) 0.1 mg/kg BID 10 days, 1st dose 2 h prior to infection, Zanamivir 0): 12.5
- Survival Rate (influenza A/PR/8/34; Compound (1) 0.3 mg/kg BID 10 days, 1st dose 2 h prior to infection, Zanamivir 0): 44.4
- Efficiency Quotient (% survival/(% body weight loss at Day 8)*(Penh at Day 6)) (influenza A/PR/8/34; Compound (1) 0.3 mg/kg BID, 1st dose 2 h prior to infection, Zanamivir 0): 0.59
- Survival Rate (influenza A/PR/8/34; Compound (1) 1 mg/kg BID 10 days, 1st dose 2 h prior to infection, Zanamivir 0): 100
- Efficiency Quotient (% survival/(% body weight loss at Day 8)*(Penh at Day 6)) (influenza A/PR/8/34; Compound (1) 1 mg/kg BID, 1st dose 2 h prior to infection, Zanamivir 0): 2.32
- Survival Rate (influenza A/PR/8/34; Zanamivir 0.3 mg/kg IN x 1 (24 h prior) + Compound (1) 0.1 mg/kg BID (from 2 h prior)): 0
- Efficiency Quotient (% survival/(% body weight loss at Day 8)*(Penh at Day 6)) (influenza A/PR/8/34; [6]): 1.35
- Survival Rate (influenza A/PR/8/34; [6]): 100
- Efficiency Quotient (% survival/(% body weight loss at Day 8)*(Penh at Day 6)) (influenza A/PR/8/34; [7]): 2.97
- Survival Rate (influenza A/PR/8/34; [7]): 100
- Efficiency Quotient (% survival/(% body weight loss at Day 8)*(Penh at Day 6)) (influenza A/PR/8/34; [8]): 1.00
- Survival Rate (influenza A/PR/8/34; [8]): 75
- Efficiency Quotient (% survival/(% body weight loss at Day 8)*(Penh at Day 6)) (influenza A/PR/8/34; [9]): 1.61
- Survival Rate (influenza A/PR/8/34; [9]): 100
- Efficiency Quotient (% survival/(% body weight loss at Day 8)*(Penh at Day 6)) (influenza A/PR/8/34; [10]): 2.31
- Survival Rate (influenza A/PR/8/34; [10]): 100
- Efficiency Quotient (% survival/(% body weight loss at Day 8)*(Penh at Day 6)) (influenza A/PR/8/34; [11]): 1.30
- Survival Rate (influenza A/PR/8/34; [11]): 100
- Efficiency Quotient (% survival/(% body weight loss at Day 8)*(Penh at Day 6)) (influenza A/PR/8/34; [12]): 1.48
- Survival Rate (influenza A/PR/8/34; [12]): 100
- Efficiency Quotient (% survival/(% body weight loss at Day 8)*(Penh at Day 6)) (influenza A/PR/8/34; [13]): 4.28
- Survival Rate (influenza A/PR/8/34; [13]): 100
- Viral Sheeding by qRT-PCR AUC, median ([2]; 100 mg QD (N = 12)): 6.05 log10 copies/mL*Day
- Viral Sheeding by qRT-PCR Duration, median ([2]; 100 mg QD (N = 12)): 0.96 days
- Viral Sheeding by qRT-PCR Peak, mean ([2]; 100 mg QD (N = 12)): 4.36 log10 TCID50/mL
- Viral Sheeding by qRT-PCR AUC, median ([2]; 400 mg QD (N = 12)): 4.90 log10 copies/mL*Day
- Viral Sheeding by qRT-PCR Duration, median ([2]; 400 mg QD (N = 12)): 1.36 days
- Viral Sheeding by qRT-PCR Peak, mean ([2]; 400 mg QD (N = 12)): 3.90 log10 TCID50/mL
- Viral Sheeding by qRT-PCR AUC, median ([2]; 900/600 mg (N = 14)): 10.65 log10 copies/mL*Day
- Viral Sheeding by qRT-PCR Duration, median ([2]; 900/600 mg (N = 14)): 2.39 days
- Viral Sheeding by qRT-PCR Peak, mean ([2]; 900/600 mg (N = 14)): 5.08 log10 TCID50/mL
- Viral Sheeding by qRT-PCR AUC, median ([2]; 1200/600 mg (N = 14)): 0.45 log10 copies/mL*Day
- Viral Sheeding by qRT-PCR Duration, median ([2]; 1200/600 mg (N = 14)): 0.00 days
- Viral Sheeding by qRT-PCR Peak, mean ([2]; 1200/600 mg (N = 14)): 2.37 log10 TCID50/mL
- Viral Sheeding by qRT-PCR AUC, median [2, 14]: 3.45 log10 copies/mL*Day
- Viral Sheeding by qRT-PCR Duration, median [2, 14]: 0.71 days
- Viral Sheeding by qRT-PCR Peak, mean [2, 14]: 3.91 log10 TCID50/mL
- Composite Clinical Symptom AUC, median ([3]; 100 mg QD (N = 12)): 1.85 Grade*Day
- Composite Clinical Symptom Duration, median ([3]; 100 mg QD (N = 12)): 3.21 days
- Composite Clinical Symptom Peak, mean ([3]; 100 mg QD (N = 12)): 3.17 Grade
- Influenza like Symptom AUC, median ([3]; 100 mg QD (N = 12)): 1.85 Grade*Day
- Influenza like Symptom Duration, median ([3]; 100 mg QD (N = 12)): 3.21 days
- Influenza like Symptom Peak, mean ([3]; 100 mg QD (N = 12)): 2.75 Grade
- Composite Clinical Symptom AUC, median ([3]; 400 mg QD (N = 12)): 4.70 Grade*Day
- Composite Clinical Symptom Duration, median ([3]; 400 mg QD (N = 12)): 3.34 days
- Composite Clinical Symptom Peak, mean ([3]; 400 mg QD (N = 12)): 2.83 Grade
- Influenza like Symptom AUC, median ([3]; 400 mg QD (N = 12)): 3.80 Grade*Day
- Influenza like Symptom Duration, median ([3]; 400 mg QD (N = 12)): 3.34 days
- Influenza like Symptom Peak, mean ([3]; 400 mg QD (N = 12)): 2.42 Grade
- Composite Clinical Symptom AUC, median ([3]; 900/600 mg (N = 14)): 1.75 Grade*Day
- Composite Clinical Symptom Duration, median ([3]; 900/600 mg (N = 14)): 2.69 days
- Composite Clinical Symptom Peak, mean ([3]; 900/600 mg (N = 14)): 3.71 Grade
- Influenza like Symptom AUC, median ([3]; 900/600 mg (N = 14)): 1.75 Grade*Day
- Influenza like Symptom Duration, median ([3]; 900/600 mg (N = 14)): 2.69 days
- Influenza like Symptom Peak, mean ([3]; 900/600 mg (N = 14)): 3.21 Grade
- Composite Clinical Symptom AUC, median ([3]; 1200/600 mg (N = 14)): 1.95 Grade*Day
- Composite Clinical Symptom Duration, median ([3]; 1200/600 mg (N = 14)): 1.88 days
- Composite Clinical Symptom Peak, mean ([3]; 1200/600 mg (N = 14)): 1.50 Grade
- Influenza like Symptom AUC, median ([3]; 1200/600 mg (N = 14)): 1.75 Grade*Day
- Influenza like Symptom Duration, median ([3]; 1200/600 mg (N = 14)): 1.88 days
- Influenza like Symptom Peak, mean ([3]; 1200/600 mg (N = 14)): 1.36 Grade
- Composite Clinical Symptom AUC, median [3, 14]: 2.15 Grade*Day
- Composite Clinical Symptom Duration, median [3, 14]: 2.34 days
- Composite Clinical Symptom Peak, mean [3, 14]: 2.79 Grade
- Influenza like Symptom AUC, median [3, 14]: 2.05 Grade*Day
- Influenza like Symptom Duration, median [3, 14]: 2.34 days
- Influenza like Symptom Peak, mean [3, 14]: 2.42 Grade
- Viral Shedding by Tissue Culture AUC, median ([4]; 100 mg QD (N = 12)): 1.25 log10 TCID50 mL*Day
- Viral Shedding by Tissue Culture Duration, median ([4]; 100 mg QD (N = 12)): 0.96 days
- Viral Shedding by Tissue Culture Peak, mean ([4]; 100 mg QD (N = 12)): 2.09 log10 TCID50/mL
- Viral Shedding by Tissue Culture AUC, median ([4]; 400 mg QD (N = 12)): 0.70 log10 TCID50 mL*Day
- Viral Shedding by Tissue Culture Duration, median ([4]; 400 mg QD (N = 12)): 1.60 days
- Viral Shedding by Tissue Culture Peak, mean ([4]; 400 mg QD (N = 12)): 1.73 log10 TCID50/mL
- Viral Shedding by Tissue Culture AUC, median ([4]; 900/600 mg (N = 14)): 3.20 log10 TCID50 mL*Day
- Viral Shedding by Tissue Culture Duration, median ([4]; 900/600 mg (N = 14)): 2.71 days
- Viral Shedding by Tissue Culture Peak, mean ([4]; 900/600 mg (N = 14)): 2.68 log10 TCID50/mL
- Viral Shedding by Tissue Culture AUC, median ([4]; 1200/600 mg (N = 14)): 0.35 log10 TCID50 mL*Day
- Viral Shedding by Tissue Culture Duration, median ([4]; 1200/600 mg (N = 14)): 0.00 days
- Viral Shedding by Tissue Culture Peak, mean ([4]; 1200/600 mg (N = 14)): 1.00 log10 TCID50/mL
- Viral Shedding by Tissue Culture AUC, median [4, 14]: 0.65 log10 TCID50 mL*Day
- Viral Shedding by Tissue Culture Duration, median [4, 14]: 0.71 days
- Viral Shedding by Tissue Culture Peak, mean [4, 14]: 1.87 log10 TCID50/mL
- EC50 (influenza A strains; ATCC 2 / H1N1, MDCK, read-out: Cell Protection Assay EC50 ± SD): 1.9 ± 3 nM
- EC50 (influenza A strains; ATCC 3 / H1N1, MDCK, read-out: Cell Protection Assay EC50 ± SD): 1.9 ± 3.2 nM
- EC50 (influenza A strains; H1N1, MDCK, in Sus scrofa, read-out: Cell Protection Assay EC50 ± SD, A/Swine/1976/31, H1N1): 0.47 ± 0.11 nM
- EC50 (influenza A strains; H1N1, MDCK, in Sus scrofa, read-out: Cell Protection Assay EC50 ± SD, A/Swine/Iowa/15/30, H1N1): 0.65 ± 0.082 nM
- EC50 (influenza A strains; H1N1, MDCK, read-out: Cell Protection Assay EC50 ± SD, A/New Jersey/8/76, H1N1): 0.2 ± 0.096 nM
- EC50 (influenza A strains; H3N8, MDCK, in Equus caballus, read-out: Cell Protection Assay EC50 ± SD, A/Equine/2/Miami/63, H3N8): 0.5 ± 0.065 nM
- Mean Lung Parameters (Day 6): Score (hemorrhage score 0-4) [5, 15]: 0.6
- Mean Lung Parameters (Day 6): Virus Titer [5, 15]: 5.5 Log10 CCID50/g
- Mean Lung Parameters (Day 6): Weight [5, 15]: 246 mg
- Mean Lung Parameters (Day 6): Score (hemorrhage score 0-4) [5, 16]: 0.0
- Mean Lung Parameters (Day 6): Virus Titer [5, 16]: 3.1 Log10 CCID50/g
- Mean Lung Parameters (Day 6): Weight [5, 16]: 123 mg
- Mean Lung Parameters (Day 6): Score (hemorrhage score 0-4) [5, 17]: 0.2
- Mean Lung Parameters (Day 6): Virus Titer [5, 17]: <2.6^d*** Log10 CCID50/g
- Mean Lung Parameters (Day 6): Weight [5, 17]: 132 mg
